Experimental findings from patent publication US6534524B1, “Indazole compounds and pharmaceutical compositions for inhibiting protein kinases, and methods for their use” (Agouron Pharmaceuticals, Inc., priority 1999, dated 2003) are described below.

SMILES strings stand for the structures.

This experiment deals with human umbilical vein endothelial cells (HUVEC). Put plainly: HUVEC proliferation assay (VEGF-stimulated, MTT). It counts as cell-based. The settings on record: Library III; HUVEC proliferation; nominal concentration of 0.5 nM; crude reaction mixtures.
Regarding `Cc1ccc(NC(=O)c2ccccc2Sc2ccc3c(/C=C/c4ccccn4)n[nH]c3c2)cc1O`, the “% inhibition” value is given as 6%.
For `Cc1cc(NC(=O)c2ccccc2Sc2ccc3c(/C=C/c4ccccn4)n[nH]c3c2)ccc1F` the value was 9%; for `Cc1ccc(NC(=O)c2ccccc2Sc2ccc3c(/C=C/c4ccccn4)n[nH]c3c2)c(F)c1`, 2%; for `O=C(Nc1cccc2cc(O)ccc12)c1ccccc1Sc1ccc2c(/C=C/c3ccccn3)n[nH]c2c1`, −22%.
For `Cn1nc(C2CC2)cc1NC(=O)c1ccccc1Sc1ccc2c(/C=C/c3ccccn3)n[nH]c2c1` the value was −47%.
For `O=C(Nc1ccc2cccc(O)c2n1)c1ccccc1Sc1ccc2c(/C=C/c3ccccn3)n[nH]c2c1` the value was 33%; for `O=C(Nc1ccc(C(F)(F)F)cn1)c1ccccc1Sc1ccc2c(/C=C/c3ccccn3)n[nH]c2c1`, 20%; for `O=C(Nc1ncc(Cl)s1)c1ccccc1Sc1ccc2c(/C=C/c3ccccn3)n[nH]c2c1`, −29%.
Consider `CCc1cccc(CC)c1NC(=O)c1ccccc1Sc1ccc2c(/C=C/c3ccccn3)n[nH]c2c1`, for which the “% inhibition” value is on record as −17%.
For `CC(C)c1cccc(C(C)C)c1NC(=O)c1ccccc1Sc1ccc2c(/C=C/c3ccccn3)n[nH]c2c1` the value was −7%; for `Cc1nc(NC(=O)c2ccccc2Sc2ccc3c(/C=C/c4ccccn4)n[nH]c3c2)n[nH]1`, 0%; for `COC(=O)c1ccc(NC(=O)c2ccccc2Sc2ccc3c(/C=C/c4ccccn4)n[nH]c3c2)o1`, −1%.
For `O=C(Nc1ncnc2[nH]ncc12)c1ccccc1Sc1ccc2c(/C=C/c3ccccn3)n[nH]c2c1` the value was 4%; for `O=C(Nc1nc(O)nc2[nH]ncc12)c1ccccc1Sc1ccc2c(/C=C/c3ccccn3)n[nH]c2c1`, −43%.
For `CCCc1cccc(NC(=O)c2ccccc2Sc2ccc3c(/C=C/c4ccccn4)n[nH]c3c2)c1` the value was −42%; for `CCCCCc1ccc(NC(=O)c2ccccc2Sc2ccc3c(/C=C/c4ccccn4)n[nH]c3c2)cc1`, 13%; for `CCC(C)c1ccc(NC(=O)c2ccccc2Sc2ccc3c(/C=C/c4ccccn4)n[nH]c3c2)cc1` (stereo not shown), 81%.
As for `O=C(Nc1c(F)cccc1F)c1ccccc1Sc1ccc2c(/C=C/c3ccccn3)n[nH]c2c1`, the “% inhibition” value is on record as −31%.
For `O=C(Nc1cccc(-c2cc[nH]n2)c1)c1ccccc1Sc1ccc2c(/C=C/c3ccccn3)n[nH]c2c1` the value was −3%; for `CC(C)(C)C1CCC(NC(=O)c2ccccc2Sc2ccc3c(/C=C/c4ccccn4)n[nH]c3c2)CC1` (stereo not shown), 0%.
For `CC(CCCC(C)(C)O)NC(=O)c1ccccc1Sc1ccc2c(/C=C/c3ccccn3)n[nH]c2c1` (stereo not shown) the value was 3%; for `Cc1ccc(NC(=O)c2ccccc2Sc2ccc3c(/C=C/c4ccccn4)n[nH]c3c2)c(C)c1`, 13%; for `COc1ccc(NC(=O)c2ccccc2Sc2ccc3c(/C=C/c4ccccn4)n[nH]c3c2)c(C)c1`, 0%.
For `O=C(Nc1cccnc1Cl)c1ccccc1Sc1ccc2c(/C=C/c3ccccn3)n[nH]c2c1` the value was 2%; for `O=C(Nc1ncc(Cl)cc1Cl)c1ccccc1Sc1ccc2c(/C=C/c3ccccn3)n[nH]c2c1`, 4%.
Consider `COc1ccc(NC(=O)c2ccccc2Sc2ccc3c(/C=C/c4ccccn4)n[nH]c3c2)c(OC)n1`, for which the “% inhibition” value was 20%.
With `O=C(Nc1ccc(Cl)nc1)c1ccccc1Sc1ccc2c(/C=C/c3ccccn3)n[nH]c2c1`, the “% inhibition” value stood at 2%.
In the case of `N#Cc1c(NC(=O)c2ccccc2Sc2ccc3c(/C=C/c4ccccn4)n[nH]c3c2)sc2c1CCC2`, the “% inhibition” value is listed as −9%.
Take `Cc1ccc(O)c(NC(=O)c2ccccc2Sc2ccc3c(/C=C/c4ccccn4)n[nH]c3c2)c1`: the “% inhibition” value was −1%.
As to `O=C(Nc1cccc2c(O)cccc12)c1ccccc1Sc1ccc2c(/C=C/c3ccccn3)n[nH]c2c1`, the “% inhibition” value was 4%.
As for `Cc1cc(O)ccc1NC(=O)c1ccccc1Sc1ccc2c(/C=C/c3ccccn3)n[nH]c2c1`, the “% inhibition” value is listed as 12%.
For `COC(CCCNC(=O)c1ccccc1Sc1ccc2c(/C=C/c3ccccn3)n[nH]c2c1)OC` the value was 9%; for `Cc1ccnc(NC(=O)c2ccccc2Sc2ccc3c(/C=C/c4ccccn4)n[nH]c3c2)c1`, −6%; for `NC(=O)c1ccc(NC(=O)c2ccccc2Sc2ccc3c(/C=C/c4ccccn4)n[nH]c3c2)nc1`, −2%.
For `CC(=O)c1cccc(NC(=O)c2ccccc2Sc2ccc3c(/C=C/c4ccccn4)n[nH]c3c2)c1` the value was 5%; for `CC(=O)c1ccc(NC(=O)c2ccccc2Sc2ccc3c(/C=C/c4ccccn4)n[nH]c3c2)cc1`, 6%.
Regarding `O=C(Nc1ccc2ccccc2n1)c1ccccc1Sc1ccc2c(/C=C/c3ccccn3)n[nH]c2c1`, the “% inhibition” value was 18%.
For `CCc1ccnc(NC(=O)c2ccccc2Sc2ccc3c(/C=C/c4ccccn4)n[nH]c3c2)c1` the value was 20%.
For `CCc1ccc(C)nc1NC(=O)c1ccccc1Sc1ccc2c(/C=C/c3ccccn3)n[nH]c2c1` the value was −23%.
For `COc1ccc(NC(=O)c2ccccc2Sc2ccc3c(/C=C/c4ccccn4)n[nH]c3c2)cc1F` the value was 9%.
As to `COC(=O)c1nccnc1NC(=O)c1ccccc1Sc1ccc2c(/C=C/c3ccccn3)n[nH]c2c1`, the “% inhibition” value came out at 7%.
For `CCOC(=O)c1ccccc1NC(=O)c1ccccc1Sc1ccc2c(/C=C/c3ccccn3)n[nH]c2c1` the value was −4%; for `Cc1c(O)ccc(NC(=O)c2ccccc2Sc2ccc3c(/C=C/c4ccccn4)n[nH]c3c2)c1C`, 4%; for `O=C(Nc1ccc(O)cc1Cl)c1ccccc1Sc1ccc2c(/C=C/c3ccccn3)n[nH]c2c1`, 7%.
For `O=C(Nc1nc[nH]c1[N+](=O)[O-])c1ccccc1Sc1ccc2c(/C=C/c3ccccn3)n[nH]c2c1` the value was 7%; for `O=C(Nc1ncnc2[nH]cnc12)c1ccccc1Sc1ccc2c(/C=C/c3ccccn3)n[nH]c2c1`, 18%.
For `O=C(Nc1nc(Cl)ncc1F)c1ccccc1Sc1ccc2c(/C=C/c3ccccn3)n[nH]c2c1` the value was 11%.
Turning to `O=C(Nc1ccc2c(c1)C(=O)NC2=O)c1ccccc1Sc1ccc2c(/C=C/c3ccccn3)n[nH]c2c1`, the “% inhibition” value was −31%.
For `NC(=O)c1[nH]cnc1NC(=O)c1ccccc1Sc1ccc2c(/C=C/c3ccccn3)n[nH]c2c1`, the “% inhibition” value is recorded as −1%.
For `CC(C)(C)c1ccc(O)c(NC(=O)c2ccccc2Sc2ccc3c(/C=C/c4ccccn4)n[nH]c3c2)c1` the value was −3%; for `Cc1cccc(O)c1NC(=O)c1ccccc1Sc1ccc2c(/C=C/c3ccccn3)n[nH]c2c1`, 11%.
For `O=C(Nc1cc(Cl)ccc1Cl)c1ccccc1Sc1ccc2c(/C=C/c3ccccn3)n[nH]c2c1` the value was 15%; for `Cc1cccc(C(C)C)c1NC(=O)c1ccccc1Sc1ccc2c(/C=C/c3ccccn3)n[nH]c2c1`, −37%; for `Cc1cccc(C)c1NC(=O)c1ccccc1Sc1ccc2c(/C=C/c3ccccn3)n[nH]c2c1`, −20%.
For `COc1cccc(C)c1NC(=O)c1ccccc1Sc1ccc2c(/C=C/c3ccccn3)n[nH]c2c1` the value was 8%.

A word on the % inhibition: it is the relative decrease from the control value, in per cent.
